Measurements reported in PubChem BioAssay AID248 (DTP/NCI, 2004).
Toxic doses and inconclusive results are not listed. Cut-off read from the data, not from the text of the source: active = T/C of 150% or more; inactive = T/C below 125%. Square brackets hold non-standard residues; d marks the D form. Peptide text beside a SMILES is read from it. * marks the point of attachment. ξ: configuration not given here. Hexanoyl = CCCCCC(=O)*; ξP = O=C(O)C1CCCN1

Test system: L1210 leukemia ip in BDF1 mice, survival T/C
Assay: NCI In Vivo Anticancer Drug Screen. Data for tumor model L1210 Leukemia (intraperitoneal) in B6D2F1 (BDF1) mice
Conditions: endpoint: mean survival time, higher = longer survival
Outline: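 Transplantable tumor model; survival measured in treated vs vehicle control mice. Value = treated/control.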

[1] = dose: 100.0 mg/kg/injection, schedule: Q04DX003 (ip), vehicle: saline
[2] = dose: 200.0 mg/kg/injection, schedule: Q04DX003 (ip), vehicle: saline
[3] = dose: 400.0 mg/kg/injection, schedule: Q04DX003 (ip), vehicle: saline
[4] = dose: 100.0 mg/kg/injection, schedule: Q01DX001 (ip), vehicle: saline
[5] = dose: 200.0 mg/kg/injection, schedule: Q01DX001 (ip), vehicle: saline
[6] = dose: 400.0 mg/kg/injection, schedule: Q01DX001 (ip), vehicle: saline
[7] = dose: 100.0 mg/kg/injection, schedule: Q04DX003 (ip), vehicle: Klucel (hydroxypropylcellulose) (HPC)
[8] = dose: 200.0 mg/kg/injection, schedule: Q04DX003 (ip), vehicle: Klucel (hydroxypropylcellulose) (HPC)
[9] = dose: 400.0 mg/kg/injection, schedule: Q04DX003 (ip), vehicle: Klucel (hydroxypropylcellulose) (HPC)
[10] = dose: 75.0 mg/kg/injection, schedule: Q01DX001 (ip), vehicle: saline
[11] = dose: 150.0 mg/kg/injection, schedule: Q01DX001 (ip), vehicle: saline
[12] = dose: 5.0 mg/kg/injection, schedule: Q01DX001 (ip), vehicle: carboxymethylcellulose (CMC)
[13] = dose: 10.0 mg/kg/injection, schedule: Q01DX001 (ip), vehicle: carboxymethylcellulose (CMC)
[14] = dose: 20.0 mg/kg/injection, schedule: Q01DX001 (ip), vehicle: carboxymethylcellulose (CMC)
[15] = dose: 40.0 mg/kg/injection, schedule: Q01DX001 (ip), vehicle: carboxymethylcellulose (CMC)
[16] = dose: 100.0 mg/kg/injection, schedule: Q04DX002 (ip), vehicle: saline
[17] = dose: 200.0 mg/kg/injection, schedule: Q04DX002 (ip), vehicle: saline
[18] = dose: 100.0 mg/kg/injection, schedule: Q01DX009 (ip), vehicle: Klucel (hydroxypropylcellulose) (HPC)
[19] = dose: 200.0 mg/kg/injection, schedule: Q01DX009 (ip), vehicle: Klucel (hydroxypropylcellulose) (HPC)
[20] = dose: 400.0 mg/kg/injection, schedule: Q01DX009 (ip), vehicle: Klucel (hydroxypropylcellulose) (HPC)

Measured: T/C

CC(C)OC(=O)Nc1cccc(Cl)c1
inactive: dose: 50.0 mg/kg/injection, schedule: Q01DX009 (ip), vehicle: saline sonified 100 % of control | dose: 100.0 mg/kg/injection, schedule: Q01DX009 (ip), vehicle: saline sonified 101 % of control | dose: 100.0 mg/kg/injection, schedule: Q04DX003 (ip), vehicle: saline sonified 87 % of control | dose: 200.0 mg/kg/injection, schedule: Q01DX009 (ip), vehicle: saline sonified 99 % of control | dose: 200.0 mg/kg/injection, schedule: Q04DX003 (ip), vehicle: saline sonified 94 % of control | dose: 400.0 mg/kg/injection, schedule: Q04DX003 (ip), vehicle: saline sonified 94 % of control

CCN(CC)Cc1cc(Nc2nc(/C=C/c3ccc(Cl)cc3)nc(Cl)c2-c2ccc(Cl)cc2)ccc1O
inactive: dose: 12.0 mg/kg/injection, schedule: Q01DX001 (ip), vehicle: saline 100 % of control | dose: 12.5 mg/kg/injection, schedule: Q04DX003 (ip), vehicle: Klucel (hydroxypropylcellulose) (HPC) 95 % of control | dose: 25.0 mg/kg/injection, schedule: Q01DX001 (ip), vehicle: saline 107 % of control | dose: 25.0 mg/kg/injection, schedule: Q04DX003 (ip), vehicle: Klucel (hydroxypropylcellulose) (HPC) 98 % of control | dose: 50.0 mg/kg/injection, schedule: Q01DX001 (ip), vehicle: saline 100 % of control | dose: 50.0 mg/kg/injection, schedule: Q04DX003 (ip), vehicle: Klucel (hydroxypropylcellulose) (HPC) 97 % of control

O=C1OC(=C(Br)Br)C2C3C=CC(CC3)C12 (configuration not stated)
inactive: [1] 95 % of control | [2] 98 % of control | [3] 98 % of control

CCCCCC(=O)NCC(=O)N1CCCC1C(=O)O (configuration not stated) (Hexanoyl-Gly-[ξP]-OH)
inactive: [4] 95 % of control | [5] 107 % of control | [6] 98 % of control

CCC1CC(O)c2ccccc2O1 (configuration not stated)
inactive: dose: 100.0 mg/kg/injection, schedule: Q01DX001 (ip), vehicle: other 103 % of control | dose: 200.0 mg/kg/injection, schedule: Q01DX001 (ip), vehicle: other 95 % of control | dose: 400.0 mg/kg/injection, schedule: Q01DX001 (ip), vehicle: other 91 % of control

CCCCCCCCCCCCCCCOc1cccc(OCCCCCCCCCCCCCCC)c1
inactive: dose: 50.0 mg/kg/injection, schedule: Q01DX001 (ip), vehicle: Klucel (hydroxypropylcellulose) (HPC) 92 % of control | dose: 100.0 mg/kg/injection, schedule: Q01DX001 (ip), vehicle: Klucel (hydroxypropylcellulose) (HPC) 92 % of control | dose: 200.0 mg/kg/injection, schedule: Q01DX001 (ip), vehicle: Klucel (hydroxypropylcellulose) (HPC) 92 % of control

O=C1c2ccccc2-c2cccc3ccc(-c4ccccc4)c1c23
inactive: dose: 75.0 mg/kg/injection, schedule: Q01DX009 (ip), vehicle: Klucel (hydroxypropylcellulose) (HPC) 105 % of control | [7] 96 % of control | dose: 150.0 mg/kg/injection, schedule: Q01DX009 (ip), vehicle: Klucel (hydroxypropylcellulose) (HPC) 97 % of control | [8] 96 % of control | dose: 300.0 mg/kg/injection, schedule: Q01DX009 (ip), vehicle: Klucel (hydroxypropylcellulose) (HPC) 101 % of control | [9] 100 % of control

CCCCCCCCCCCCCCCCCCNC1=C(Cl)C(=O)C(NCCCCCCCCCCCCCCCCCC)=C(Cl)C1=O
inactive: dose: 50.0 mg/kg/injection, schedule: Q01DX001 (ip), vehicle: carboxymethylcellulose (CMC) 100 % of control

C[n+]1cccc(C(=O)NCCc2c[nH]c3ccccc23)c1
inactive: [10] 96 % of control | [11] 104 % of control

O=C(Nc1ccccc1O)c1ccccc1
inactive: [7] 109 % of control | [8] 102 % of control | [9] 101 % of control

CN(CCO)C(=O)C1C(c2ccccc2)C1c1ccccc1 (configuration not stated)
inactive: dose: 100.0 mg/kg/injection, schedule: Q04DX002 (ip), vehicle: Klucel (hydroxypropylcellulose) (HPC) 100 % of control | dose: 200.0 mg/kg/injection, schedule: Q04DX002 (ip), vehicle: Klucel (hydroxypropylcellulose) (HPC) 94 % of control | dose: 400.0 mg/kg/injection, schedule: Q04DX002 (ip), vehicle: Klucel (hydroxypropylcellulose) (HPC) 97 % of control

CC(=O)OC(C)(C)/C=C/C(=O)[C@](C)(O)[C@H]1[C@H](O)C[C@@]2(C)[C@@H]3CC=C4[C@@H](C=C(O)C(=O)C4(C)C)[C@]3(C)C(=O)C[C@]12C
inactive: dose: 0.4 mg/kg/injection, schedule: Q01DX Z (ip), vehicle: carboxymethylcellulose (CMC) 94 % of control | dose: 0.8 mg/kg/injection, schedule: Q01DX Z (ip), vehicle: carboxymethylcellulose (CMC) 100 % of control | dose: 1.6 mg/kg/injection, schedule: Q01DX Z (ip), vehicle: carboxymethylcellulose (CMC) 105 % of control | dose: 3.2 mg/kg/injection, schedule: Q01DX Z (ip), vehicle: carboxymethylcellulose (CMC) 100 % of control

CN(CCc1cnc2nc(N)nc(N)c2n1)c1ccc(C(=O)O)cc1
inactive: [10] 115 % of control

O=C1C(SCCO)=C(SCCO)C(=O)c2[nH]cnc21
inactive: [12] 100 % of control | [13] 101 % of control | [14] 100 % of control | [15] 104 % of control

c1ccc([Si]2(c3ccccc3)O[Si](c3ccccc3)(c3ccccc3)O[Si](c3ccccc3)(c3ccccc3)O2)cc1
inactive: [10] 93 % of control | [11] 87 % of control

Cc1ccc(S(=O)(=O)NC(=O)NC(C)C(=O)O)cc1 (configuration not stated)
inactive: [1] 102 % of control | [2] 97 % of control | [3] 96 % of control

O=C(OCc1ccccc1CN1CCCC1)c1ccc([N+](=O)[O-])cc1Cl
inactive: [16] 107 % of control | [17] 96 % of control

CCOC(=O)c1cnc(SC)nc1NCc1ccccc1Cl
inactive: [18] 102 % of control | [7] 106 % of control | [19] 97 % of control | [8] 105 % of control | [20] 97 % of control | [9] 95 % of control

CCN(CC)CCCC(C)Nc1ccnc2cc(C(F)(F)F)ccc12 (configuration not stated)
inactive: [12] 104 % of control | [13] 106 % of control | [14] 90 % of control | [15] 104 % of control

CCN(CC)c1ccc(/C=C\C(=O)c2ccccc2)cc1
inactive: [18] 97 % of control | [19] 100 % of control | [20] 100 % of control

Cc1cccc(OCC2CO2)c1 (configuration not stated)
inactive: [16] 87 % of control | [17] 102 % of control | dose: 400.0 mg/kg/injection, schedule: Q04DX002 (ip), vehicle: saline 105 % of control

Cc1nc(N)[nH]c(=O)c1CCCNc1ccc(/C=C/C2(CCl)OCCO2)cc1
inactive: dose: 50.0 mg/kg/injection, schedule: Q01DX Z (ip), vehicle: carboxymethylcellulose (CMC) 92 % of control | dose: 200.0 mg/kg/injection, schedule: Q01DX Z (ip), vehicle: carboxymethylcellulose (CMC) 97 % of control | dose: 400.0 mg/kg/injection, schedule: Q01DX Z (ip), vehicle: carboxymethylcellulose (CMC) 94 % of control

COc1ccc(/C=C/c2cc[n+](C)cc2)cc1OC
inactive: dose: 75.0 mg/kg/injection, schedule: Q01DX001 (ip), vehicle: carboxymethylcellulose (CMC) 111 % of control | dose: 150.0 mg/kg/injection, schedule: Q01DX001 (ip), vehicle: carboxymethylcellulose (CMC) 109 % of control | dose: 300.0 mg/kg/injection, schedule: Q01DX001 (ip), vehicle: carboxymethylcellulose (CMC) 103 % of control

SC1c2cc(Cl)ccc2-c2ccc(Cl)cc21
inactive: dose: 100.0 mg/kg/injection, schedule: Q01DX001 (ip), vehicle: carboxymethylcellulose (CMC) 92 % of control | dose: 200.0 mg/kg/injection, schedule: Q01DX001 (ip), vehicle: carboxymethylcellulose (CMC) 92 % of control | dose: 400.0 mg/kg/injection, schedule: Q01DX001 (ip), vehicle: carboxymethylcellulose (CMC) 92 % of control

CCOC(=O)/C(Cc1ccc2c(c1)OCO2)=N\O
inactive: [1] 96 % of control | [2] 97 % of control | [3] 103 % of control

COc1ccc(C)cc1CN1NC(=O)CC1=N
inactive: [18] 97 % of control | [7] 106 % of control | [19] 101 % of control | [8] 110 % of control | [20] 98 % of control | [9] 102 % of control

CN(O)CC(=O)O
inactive: [4] 95 % of control | [5] 98 % of control | [6] 97 % of control
